Reference: US20090312194A1, “SELECTION OF PERSONALIZED CANCER THERAPY REGIMENS USING INTERFERING RNA FUNCTIONAL SCREENING” (OREGON HEALTH & SCIENCE UNIVERSITY, priority 2008, published 2009)
Values belong to the molecule of their own block, whether it stands above or below them.

Key:
[1] = system: HMC1.1 cells; test: MTS proliferation assay with small-molecule kinase inhibitors, HMC1.1 cells; assay type: cell-based, human; details: for IC50: 72 hours, MTS assay
Procedure: (§1) K562 cells were obtained from American Type Culture Collection (Manassas, Va.). CMK and HEL cells were obtained from the German National Resource Centre for Biological Material (DSMZ). […] For proliferation assays, cells were incubated for 72 hours in the presence of JAK Inhibitor I, JAK3 inhibitor III, AG-490, PP2, or Src Kinase Inhibitor I (EMD BIOSCIENCES®, San Diego, Calif.), and the number of viable cells was determined with the […] 96® AQueous One solution cell proliferation assay (PROMEGA®, Madison, Wis.). For HMC1.1 cell stimulation, cells were serum starved overnight in RPMI supplemented with 0.1% bovine serum albumin, L-glutamine, and penicillin/streptomycin. The following day, cells were stimulated for five minutes with 100 ng/ml recombinant stem cell factor (Peprotech, Rocky Hill, N.J.).
(§2) For tyrosine kinase siRNA library knockdown experiments, a Student's t test was carried out for each well in comparison to both single and pooled non-specific siRNA controls. The mean of the two-tailed p-value was determined for consideration of significance and data points with p-value less than 0.05 and mean value less than 70% of non-specific controls were considered significant. For cell proliferation assays, a Student's t test was carried out for each dose point comparing HMC1.1 to K562 cell viability.

[2] = system: HEL cells; test: MTS proliferation assay with kinase inhibitors, HEL cells; assay type: cell-based; details: HEL cells (JAK2 V617F), 72 hours
Procedure: as §1
(§3) 96 AQueous One solution cell proliferation assay (PROMEGA®). […] Total viable cells were determined every day for 1 week using PI exclusion on a Guava cell counter (GUAVA TECHNOLOGIES®). […] Ten days later, colonies were counted manually or using a GELCOUNT® automated colony counter (OXFORD OPTRONIX®, Oxford, UK).

[3] = system: primary cells from patient samples; test: Cell viability assay (MTS) of primary patient cells with inhibitor dose gradients; assay type: cell-based, human; details: cells from CMML patient 07-079, three days
[4] = system: primary cells from patient samples; test: Colony assay of primary patient cells in methocult; assay type: cell-based, human; details: ten days
Procedure: For determination of factor-independent growth, parental BA/F3 cells as well as BA/F3 cells expressing […], or W515L were washed three times and 1 million cells were seeded into triplicate wells of a 6-well plate in R10. Total viable cells were determined every day for 1 week using PI exclusion on a Guava cell counter (GUAVA TECHNOLOGIES®). For colony assays, 200,000 primary cells from patient samples were incubated in the presence of dose gradients of AG490, SU11248, or PTK787 in methocult containing IL-3, GM-CSF, and SCF ([…] TECHNOLOGIES®). Ten days later, colonies were counted manually or using a GELCOUNT® automated colony counter (OXFORD OPTRONIX®, Oxford, UK). For siRNA functional screens on patient samples, a Student's t test was carried out for each well in comparison to both single and pooled non-specific siRNA controls. The mean of the two-tailed p-value was determined for consideration of significance. […] For cell proliferation, cell viability, and colony assays, a Student's t test was carried out for each dose or time point compared with the relevant control cell line or the no drug control.

[5] = system: BA/F3 cells expressing MPL 1886InsGG; test: Proliferation assay, factor-independent BA/F3 cells expressing MPL 1886InsGG; assay type: cell-based; details: factor-independent BA/F3 MPL 1886InsGG, three days
Procedure: as §3
(§4) MPL was then cloned into a Gateway compatible version of MSCV-IRES-GFP (MIG) by performing an LR recombination reaction. […] One milliliter of viral supernatant was mixed with polybrene (5 mg/ml), HEPES (7.5 mM), and 10^6 BA/F3 cells and placed in a centrifuge at 2500 RPM for 90 minutes at 30° C.

[6] = system: BA/F3 cells expressing MPL W515L; test: Proliferation assay, factor-independent BA/F3 cells expressing MPL W515L; assay type: cell-based; details: three days
Procedure: as §3, §4

[7] = system: Patient 07-079, ASM with associated CMML; test: Midostaurin treatment of patient 07-079; assay type: in vivo, human; details: patient 07-079, midostaurin 50 mg bid, briefly in combination with hydroxyurea
Procedure: White blood cell counts were monitored over 9 days. Normal white blood cell counts range from 4−12×10^3 per ml. […] Cells were then stimulated for 15 minutes with thrombopoietin (10 ng/ml) and cell lysates were subjected to immunoblot analysis for phospho or total-JAK2 as well as β-actin. […] Cell proliferation was determined after three days. Values represent the percent mean (normalized to untreated control wells)±s.e.m. (n=3).

[8] = system: K562 cells; test: MTS proliferation assay with small-molecule kinase inhibitors, K562 control cells; assay type: cell-based; details: concentrations up to and including 10 μM
Procedure: as §1, §2

[9] = molecular target: MPL^1886InsGG (thrombopoietin receptor with two base-pair GG insertion in exon 12) (human) (UniProt P40238); test: cell-based or functional assay; details: scale: fold lower dose of thrombopoietin than MPL^WT

Molecule: N#C/C(=C\c1ccc(O)c(O)c1)C(=O)NCc1ccccc1 [AG-490]
IC50 [1]: > 50 µM | IC50 [2]: 45 µM | sensitivity in cell viability assay [3]: Strong sensitivity | sensitivity in colony assay ([4]; cells from CMML patient 07-079, methocult): Strong sensitivity | sensitivity to inhibitor [5]: strong sensitivity | sensitivity to inhibitor [6]: strong sensitivity

Molecule: CC(C)(C)n1nc(-c2ccc(Cl)cc2)c2c(N)ncnc21 [PP2]
IC50 [1]: 1.5 µM

Molecule: Clc1ccc(Nc2nnc(Cc3ccncc3)c3ccccc23)cc1 [PTK787]
colony formation ([4]; cells from AML patient 07-008, methocult with IL-3, GM-CSF, SCF): blocked by each drug at low nanomolar concentrations

Molecule: COc1cc2ncnc(Nc3ccc(Oc4ccccc4)cc3)c2cc1OC [SRC inhibitor I]
IC50 [1]: 5 µM

Molecule: CO[C@@H]1[C@H](N(C)C(=O)c2ccccc2)C[C@H]2O[C@]1(C)n1c3ccccc3c3c4c(c5c6ccccc6n2c5c31)C(=O)NC4 [midostaurin]
period to normalization of WBC counts [7]: 5 days

Molecule: JAK inhibitor I
IC50 [1]: 5 µM | viability in combination with PP2 ([1]; JAK inhibitor I dose range plus 1.5 μM PP2, compared with JAK inhibitor alone): lower viability readings at all dose points | reduction of viability and proliferation ([1]; maximal reduction despite increasing concentrations): ~50% | sensitivity to inhibitor [8]: resistant

phosphorylation of JAK2, STAT3, STAT5, ERK and AKT (immunoblot) after thrombopoietin stimulation of BA/F3 cells [9]: 10
Molecule: recombinant thrombopoietin (Peprotech) (ligand)
